Source: patent publication US20170315129A1, “CANCER CELL DETECTION METHOD USING LIVING BODY-DERIVED CELLS OF BIOLOGICAL ORIGIN” (Hirosaki University, priority 2014, published 2017)

Experiments:
[1] = system: ascites cells obtained during an operation of a patient with ovarian cancer (serous adenocarcinoma); assay: Live-cell fluorescence imaging of cells in peritoneal washing, ovarian cancer patient (Example 1); format: cell-based, human; details: 100 μM 2-NBDLG and 20 μM 2TRLG in KRB, 5 minutes 37° C., FIG. 2B
Method: Immediately after the start of laparotomy for ovarian cancer (serous adenocarcinoma), the peritoneal cavity was washed with physiological saline for the purpose of collecting an ascitic fluid. A surplus portion of the resulting peritoneal washing was transferred into a 50 mL centrifuge tube. Subsequently, it was centrifuged at 1500 G for 2 minutes at room temperature, the supernatant was removed by decantation, and the pellet was dispersed by adding 2 mL of Krebs Ringer Buffer (KRB solution, see below) to obtain an ascites-cell suspension.
NaCl 129.0 mM, KCl 4.75 mM, KH2PO41.19 mM, MgSO4.7H2O 1.19 mM, CaC12.2H2O 1.0 mM, NaHCO35.02 mM, D-Glucose 5.6 mM, HEPES 10.0 mM (an adequate amount of 1M NaOH was added to adjust the pH to 7.35). […]
For fluorescence observation, observation and image acquisition were performed as follows after mounting the glass pate on a glass-slide holder dedicated for an all-in-one fluorescence microscope BZ-X700 (Keyence Corporation). […] Bright field images and fluorescence images of the target cells were taken at a high magnification of 40× or 100×. Commercially available filters for BZ-X700 were used for fluorescence detection. A GFP filter for BZ-X (green channel, OP-87763, Ex 470/40 nm, Em 525/50 nm, DM 495 nm) was used for fluorescence observation of 2-NBDLG. […]

[2] = system: pancreatic cancer cells; details: in vitro culture cells such as pancreatic cancer cells or cancer-bearing mice; cited from earlier work

SMILES: O=C[C@@H](Nc1ccc([N+](=O)[O-])c2nonc12)[C@H](O)[C@@H](O)[C@@H](O)CO [2-NBDLG, 2-[N-(7-nitrobenz-2-oxa-1,3-diazole-4-yl)amino]-2-deoxy-L-glucose]
- fluorescence from 2-NBDLG (green wavelength region) ([1]; apparent peritoneal mesothelial cells): do not show fluorescence
- fluorescence from 2-NBDLG (green wavelength region) ([1]; morphologically suspected cancer cells): intense fluorescence
- uptake into cancer cells [2]: specific uptake
